Results taken from ChEMBL document CHEMBL1201862, “PubChem BioAssay data set” (2004).
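1) Cells in 96-well plates. 2) Compound, 48 h, 5 concentrations. 3) Linear interpolation between surrounding doses. 4) Unreached endpoint = highest concentration. Abbreviation: GI50, concentration required for 50% inhibition of growth.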 The source made the active and inactive calls. Cut-off read from the data, not from the text of the source: active = GI50 up to about 1.1 µM and inactive = higher.

Key:
Assay in all cases: inhibition of tumour cell growth, NCI panel, 48 h
[1] = test system: SNB-75
[2] = test system: NCI-H522
[3] = test system: IGROV-1
[4] = test system: EKVX
[5] = test system: OVCAR-5
[6] = test system: UO-31
[7] = test system: MCF7
[8] = test system: SF-268
[9] = test system: T47D
[10] = test system: HOP-92
[11] = test system: RPMI-8226
[12] = test system: HT-29
[13] = test system: SK-MEL-5
[14] = test system: UACC-257
[15] = test system: A498
[16] = test system: NCI-H226
[17] = test system: PC-3
[18] = test system: HOP-62
[19] = test system: SR
[20] = test system: MDA-MB-231

Row | Compound | GI50 [1] | GI50 [2] | GI50 [3] | GI50 [4] | GI50 [5] | GI50 [6] | GI50 [7] | GI50 [8] | GI50 [9] | GI50 [10] | GI50 [11] | GI50 [12] | GI50 [13] | GI50 [14] | GI50 [15] | GI50 [16] | GI50 [17] | GI50 [18] | GI50 [19] | GI50 [20]
1 | Cc1cccc2c1C(=O)/C(=C/c1ccccc1C(=O)O)C2 | 85.3 µM (inactive) | > 100 µM (inactive) | > 100 µM (inactive) | 66.8 µM (inactive) | > 100 µM (inactive) | > 100 µM (inactive) | > 100 µM (inactive) | > 100 µM (inactive) | > 100 µM (inactive) | > 100 µM (inactive) | 32.8 µM (inactive) | > 100 µM (inactive) | 37.5 µM (inactive) | > 100 µM (inactive) | > 100 µM (inactive) | 98.4 µM (inactive) | > 100 µM (inactive) | > 100 µM (inactive) | – | –
2 | CCOP(=O)(OCC)/C(C#N)=C/c1cnc(-c2ccccc2)[nH]1 | > 100 µM (inactive) | > 100 µM (inactive) | > 100 µM (inactive) | > 100 µM (inactive) | > 100 µM (inactive) | > 100 µM (inactive) | > 100 µM (inactive) | > 100 µM (inactive) | – | > 100 µM (inactive) | > 100 µM (inactive) | > 100 µM (inactive) | 82.8 µM (inactive) | > 100 µM (inactive) | > 100 µM (inactive) | > 100 µM (inactive) | > 100 µM (inactive) | > 100 µM (inactive) | > 100 µM (inactive) | > 100 µM (inactive)
3 | CCN(CC)c1ccc2cc(C(=O)Nc3ccccn3)c(=N)oc2c1 | 28.5 µM (inactive) | – | > 100 µM (inactive) | > 100 µM (inactive) | 80.2 µM (inactive) | – | – | 60.8 µM (inactive) | 99.8 µM (inactive) | > 100 µM (inactive) | > 100 µM (inactive) | 32.2 µM (inactive) | > 100 µM (inactive) | > 100 µM (inactive) | > 100 µM (inactive) | > 100 µM (inactive) | – | 22.9 µM (inactive) | > 100 µM (inactive) | 47.5 µM (inactive)
4 | NCCSC(c1ccccc1)c1ccccc1 | 24.5 µM (inactive) | 19.1 µM (inactive) | 13.1 µM (inactive) | 30.7 µM (inactive) | 17.2 µM (inactive) | 15 µM (inactive) | 19.3 µM (inactive) | 26.6 µM (inactive) | – | 10.6 µM (inactive) | 16 µM (inactive) | 17.7 µM (inactive) | 16.7 µM (inactive) | 16.3 µM (inactive) | 22.4 µM (inactive) | 31.2 µM (inactive) | 21.8 µM (inactive) | 17.5 µM (inactive) | 17.6 µM (inactive) | 18.6 µM (inactive)
5 | C(=N\c1ccc(-c2nc3ccccc3[nH]2)cc1)/c1ccco1 | > 100 µM (inactive) | 53.1 µM (inactive) | > 100 µM (inactive) | > 100 µM (inactive) | > 100 µM (inactive) | 75.7 µM (inactive) | 21.1 µM (inactive) | > 100 µM (inactive) | 38.5 µM (inactive) | 44.1 µM (inactive) | 34.8 µM (inactive) | > 100 µM (inactive) | 25.5 µM (inactive) | > 100 µM (inactive) | > 100 µM (inactive) | > 100 µM (inactive) | 33.6 µM (inactive) | > 100 µM (inactive) | 37.2 µM (inactive) | –
6 | COc1ccc2oc(C(=O)N3CC(CCl)c4ccc([N+](=O)[O-])cc43)cc2c1 (centres undefined) | 18.2 µM (inactive) | – | 0.103 µM (active) | 15.8 µM (inactive) | – | 4.45 µM (inactive) | – | 13.3 µM (inactive) | 53.8 µM (inactive) | 26.1 µM (inactive) | > 100 µM (inactive) | – | > 100 µM (inactive) | > 100 µM (inactive) | 18.9 µM (inactive) | 0.664 µM (active) | 20.7 µM (inactive) | 12.4 µM (inactive) | 0.402 µM (active) | 14.9 µM (inactive)
7 | [N-]=[N+]=C1CNC(=O)NC1=O | 13.5 µM (inactive) | > 100 µM (inactive) | > 100 µM (inactive) | > 100 µM (inactive) | > 100 µM (inactive) | > 100 µM (inactive) | > 100 µM (inactive) | > 100 µM (inactive) | > 100 µM (inactive) | > 100 µM (inactive) | 28.8 µM (inactive) | > 100 µM (inactive) | > 100 µM (inactive) | > 100 µM (inactive) | – | > 100 µM (inactive) | > 100 µM (inactive) | > 100 µM (inactive) | – | > 100 µM (inactive)
8 | Cc1cn2cc(-c3cccs3)nc2s1 | > 100 µM (inactive) | > 100 µM (inactive) | > 86.3 µM (inactive) | > 65.8 µM (inactive) | > 100 µM (inactive) | 48.8 µM (inactive) | > 53.5 µM (inactive) | > 91.8 µM (inactive) | 25.4 µM (inactive) | > 71.8 µM (inactive) | > 100 µM (inactive) | > 41.2 µM (inactive) | > 61.8 µM (inactive) | > 85.9 µM (inactive) | 27.2 µM (inactive) | > 24.6 µM (inactive) | > 74.3 µM (inactive) | > 100 µM (inactive) | > 67.6 µM (inactive) | –
9 | CCOC(CN(C)C(=O)OCC(Cl)(Cl)Cl)OCC | 83.4 µM (inactive) | 47.8 µM (inactive) | > 100 µM (inactive) | > 100 µM (inactive) | > 100 µM (inactive) | 27.6 µM (inactive) | 67.9 µM (inactive) | > 100 µM (inactive) | – | 33.9 µM (inactive) | – | 79.1 µM (inactive) | 33.7 µM (inactive) | 33.4 µM (inactive) | – | 54.6 µM (inactive) | 23.3 µM (inactive) | > 100 µM (inactive) | 34.2 µM (inactive) | 25.5 µM (inactive)
10 | CC(C)(C)C1=C(Br)C(OC(=O)C(F)(F)F)(C(C)(C)C)OP1(=O)c1ccccc1 (centres undefined) | 33.4 µM (inactive) | 42.2 µM (inactive) | 35.7 µM (inactive) | 23.8 µM (inactive) | > 100 µM (inactive) | 52.5 µM (inactive) | 42.7 µM (inactive) | 61.4 µM (inactive) | 30 µM (inactive) | 36.5 µM (inactive) | – | 37 µM (inactive) | 65.3 µM (inactive) | 72.9 µM (inactive) | 27.8 µM (inactive) | 40.5 µM (inactive) | 18.1 µM (inactive) | 25.9 µM (inactive) | – | –
11 | CN(Cc1cnc2c(n1)C(N)=NN(N)N2)c1ccc(C(=O)NC(CCP(=O)(O)O)C(=O)O)cc1 (centres undefined) | 7.01 µM (inactive) | 26.4 µM (inactive) | 4.86 µM (inactive) | > 43.3 µM (inactive) | – | > 19.9 µM (inactive) | 2.18 µM (inactive) | 1.21 µM (inactive) | > 100 µM (inactive) | > 100 µM (inactive) | – | 9.51 µM (inactive) | 5.35 µM (inactive) | > 100 µM (inactive) | 36.5 µM (inactive) | > 35.1 µM (inactive) | – | > 100 µM (inactive) | – | > 100 µM (inactive)
12 | CO/N=C(\C(=O)Nc1cncs1)c1csc(NC(c2ccccc2)(c2ccccc2)c2ccccc2)n1 | 9.95 µM (inactive) | > 10 µM (inactive) | > 10 µM (inactive) | 6.12 µM (inactive) | > 10 µM (inactive) | 4.37 µM (inactive) | 6.08 µM (inactive) | 9.79 µM (inactive) | 6.52 µM (inactive) | > 10 µM (inactive) | 4.52 µM (inactive) | 4.63 µM (inactive) | > 10 µM (inactive) | > 10 µM (inactive) | > 10 µM (inactive) | > 10 µM (inactive) | 4.38 µM (inactive) | > 10 µM (inactive) | 4.12 µM (inactive) | –
13 | CC1(C)CC[C@]2(C(=O)O)[C@H](O)C[C@]3(C)C(=CC[C@@H]4[C@@]5(C)CC[C@H](OC6OC(C(=O)O)C(O)C(O)C6O)C(C)(C)[C@@H]5CC[C@]43C)[C@@H]2C1 (some centres undefined) | 46.7 µM (inactive) | > 100 µM (inactive) | > 100 µM (inactive) | 78.3 µM (inactive) | > 100 µM (inactive) | 17.4 µM (inactive) | > 100 µM (inactive) | 88.5 µM (inactive) | > 100 µM (inactive) | 20.3 µM (inactive) | > 100 µM (inactive) | > 100 µM (inactive) | > 100 µM (inactive) | > 100 µM (inactive) | 22.2 µM (inactive) | > 100 µM (inactive) | > 100 µM (inactive) | > 100 µM (inactive) | 21.3 µM (inactive) | –
14 | Cc1ccc(/C=C2/NC(=S)SC2=O)cc1 | 20.7 µM (inactive) | – | 37.7 µM (inactive) | 28.4 µM (inactive) | 40.8 µM (inactive) | 24.5 µM (inactive) | 39.6 µM (inactive) | – | 31.3 µM (inactive) | 43.8 µM (inactive) | – | 28.6 µM (inactive) | 32.1 µM (inactive) | 31.4 µM (inactive) | – | 25.7 µM (inactive) | 38.4 µM (inactive) | 51.6 µM (inactive) | – | 24.4 µM (inactive)
15 | COc1cc2c(cc1C)NC(=O)/C2=C\c1cccnc1 | 17.9 µM (inactive) | 20.4 µM (inactive) | – | 19.8 µM (inactive) | 17.6 µM (inactive) | 15.6 µM (inactive) | 11.7 µM (inactive) | 19.4 µM (inactive) | 3.91 µM (inactive) | 25.1 µM (inactive) | 26.9 µM (inactive) | 15.5 µM (inactive) | 15.1 µM (inactive) | 13.1 µM (inactive) | 10.3 µM (inactive) | – | 30.1 µM (inactive) | 22.4 µM (inactive) | – | –
16 | CCN(CC)CCCC(C)NC(=O)c1ccc2c(c1)C(=O)c1ccccc1C2=O (centres undefined) | 48.2 µM (inactive) | 18.9 µM (inactive) | 24.9 µM (inactive) | 21.3 µM (inactive) | 18.9 µM (inactive) | 20.1 µM (inactive) | – | 23.6 µM (inactive) | – | 24.4 µM (inactive) | 18.7 µM (inactive) | 14 µM (inactive) | 14.5 µM (inactive) | 11.9 µM (inactive) | 20.6 µM (inactive) | 22.3 µM (inactive) | – | 27.2 µM (inactive) | 20.7 µM (inactive) | –
